These are literature values, as cited in patent publication US20140005605A1, “USE OF QUORUM SENSING INHIBITORS AND BIOFILM DISPERSING AGENTS FOR CONTROLLING BIOFILM-ASSOCIATED IMPLANTABLE MEDICAL DEVICE RELATED INFECTIONS” (priority 2012, published 2014).

One data set deals with Pseudomonas aeruginosa. To be noted: mice treated with the QSI; promoted clearance by the murine immune system.
For data set [1], the system named is biofilms formed by Pseudomonas aeruginosa.
Data set [2] concerns biofilms formed by Staphylococcus aureus.

Each structure is given as a SMILES string.

Consider `O=C1C=C(Br)/C(=C/Br)O1` [furanone C-30], for which the biofilm formation entry in the data set with Pseudomonas aeruginosa is “inhibited biofilm formation”. With `O=[N+]([O-])c1cc[n+]([O-])cc1` [4-nitro-pyridine-N-oxide], the effectiveness against biofilms entry in data set [1] and in data set [2] was “effective” in each case. For `CCCCCCC/C=C\C(=O)O` [cis-2-decanoic acid], the effectiveness against biofilms result in data set [1] and in data set [2] was “effective” in each case.
